Measurements: the NIST ThermoML archive (doi:10.1016/j.jct.2012.08.018)
Numbers after ± are expanded uncertainties.

Experiment: molar enthalpy of vaporization or sublimation
Details: 298.15 K; Crystal; Static calorimetry

SMILES	molar enthalpy [kcal/mol]
COC(N)=O [carbamic acid, methyl ester]	17.6 ± 0.311
CCOC(N)=O [ethyl carbamate]	18.6 ± 0.335
